From article PMC7587962, “Evaluation of Cytotoxicity and α-Glucosidase Inhibitory Activity of Amide and Polyamino-Derivatives of Lupane Triterpenoids” (Molecules, 2020)

Assays:
MCF7 = assay: NCI-60 SRB screen: breast cancer MCF7; format: cell-based; conditions: Homo sapiens, MCF7, 48 h
HCT-116 = assay: NCI-60 SRB screen: colon cancer HCT-116; format: cell-based; conditions: Homo sapiens, HCT-116, 48 h
SR = assay: NCI-60 SRB screen: leukemia SR; format: cell-based; conditions: Homo sapiens, 48 h
UACC-62 = assay: NCI-60 SRB screen: melanoma UACC-62; format: cell-based, human
Breast cancer subpanel = assay: NCI-60 screen, subpanel Breast cancer
ACHN = assay: NCI-60 SRB screen: renal cancer ACHN; format: cell-based, human
SK-MEL-5 = assay: NCI-60 SRB screen: melanoma SK-MEL-5; format: cell-based, human
MDA-MB-231/ATCC = assay: NCI-60 SRB screen: breast cancer MDA-MB-231/ATCC; format: cell-based; conditions: Homo sapiens, MDA-MB-231, 48 h
SN12C = assay: NCI-60 SRB screen: renal cancer SN12C; format: cell-based, human
DU-145 = assay: NCI-60 SRB screen: prostate cancer DU-145; format: cell-based, human
MDA-MB-435 = assay: NCI-60 SRB screen: melanoma MDA-MB-435; format: cell-based, human
Prostate cancer subpanel = assay: NCI-60 screen, subpanel Prostate cancer
M14 = assay: NCI-60 SRB screen: melanoma M14; format: cell-based, human
RPMI-8226 = assay: NCI-60 SRB screen: leukemia RPMI-8226; format: cell-based; conditions: Homo sapiens, RPMI-8226, 48 h
LOX IMVI = assay: NCI-60 SRB screen: melanoma LOX IMVI; format: cell-based, human
SF-295 = assay: NCI-60 SRB screen: CNS cancer SF-295; format: cell-based, human
OVCAR-5 = assay: NCI-60 SRB screen: ovarian cancer OVCAR-5; format: cell-based, human
NCI/ADR-RES = assay: NCI-60 SRB screen: ovarian cancer NCI/ADR-RES; format: cell-based, human
UACC-257 = assay: NCI-60 SRB screen: melanoma UACC-257; format: cell-based, human
HL-60(TB) = assay: NCI-60 SRB screen: leukemia HL-60(TB); format: cell-based; conditions: Homo sapiens, HL-60, 48 h
TK-10 = assay: NCI-60 SRB screen: renal cancer TK-10; format: cell-based, human
OVCAR-8 = assay: NCI-60 SRB screen: ovarian cancer OVCAR-8; format: cell-based, human
U251 = assay: NCI-60 SRB screen: CNS cancer U251; format: cell-based; conditions: Homo sapiens, U-251, 48 h
COLO 205 = assay: NCI-60 SRB screen: colon cancer COLO 205; format: cell-based, human
[1] = test system: 60 human tumor cell lines; conditions: single dose 10 µM
Colon Cancer subpanel = assay: NCI-60 screen, subpanel Colon Cancer
OVCAR-3 = assay: NCI-60 SRB screen: ovarian cancer OVCAR-3; format: cell-based, human
MOLT-4 = assay: NCI-60 SRB screen: leukemia MOLT-4; format: cell-based; conditions: Homo sapiens, MOLT-4, 48 h
HS 578T = assay: NCI-60 SRB screen: breast cancer HS 578T; format: cell-based, human
A498 = assay: NCI-60 SRB screen: renal cancer A498; format: cell-based, human
CCRF-CEM = assay: NCI-60 SRB screen: leukemia CCRF-CEM; format: cell-based; conditions: Homo sapiens, 48 h
IGROV1 = assay: NCI-60 SRB screen: ovarian cancer IGROV1; format: cell-based, human
NCI-H460 = assay: NCI-60 SRB screen: non-small cell lung cancer NCI-H460; format: cell-based; conditions: Homo sapiens, NCI-H460, 48 h
RXF 393 = assay: NCI-60 SRB screen: renal cancer RXF 393; format: cell-based, human
CNS cancer subpanel = assay: NCI-60 screen, subpanel CNS cancer
SNB-75 = assay: NCI-60 SRB screen: CNS cancer SNB-75; format: cell-based, human
HOP-92 = assay: NCI-60 SRB screen: non-small cell lung cancer HOP-92; format: cell-based, human
[2] = read-out: Percentage Cell Growth

Compound `C=C(C)[C@@H]1CC[C@]2(C(N)=O)CC[C@]3(C)[C@H](CC[C@@H]4[C@@]5(C)CC[C@H](O)C(C)(C)[C@@H]5CC[C@]43C)[C@@H]12` [Compound 5] has a GI50 (MCF7) of 2.91 µM, an activity at 10 µM (MCF7; [2]) of -12.5% and a GI50 (HCT-116) of 1.97 µM. It also gave an activity at 10 µM (HCT-116; [2]) of -24.8%, a GI50 (SR) of 4.14 µM and an activity at 10 µM (SR; [2]) of 15.5%. The GI50 (UACC-62; Homo sapiens, UACC-62, 48 h) was 4.2 µM, the “Percentage Cell Growth” value (UACC-62; UACC-62, single dose 10 µM) was −23.23% and the “MID b, average sensitivity of all cell line of particular subpanel” value (shortened to “MID b, average sensitivity”) (Breast cancer subpanel) was 3.73 µM. The “Selectivity, ratio MID a: MID b” value (Breast cancer subpanel) was 0.98, the GI50 (ACHN; Homo sapiens, 48 h) was 2.44 µM and the “Percentage Cell Growth” value (ACHN; single dose 10 µM) was −80.29%. The GI50 (SK-MEL-5; Homo sapiens, SK-MEL-5, 48 h) was 5.22 µM, the “Percentage Cell Growth” value (SK-MEL-5; SK-MEL-5, single dose 10 µM) was −39.59% and the GI50 (MDA-MB-231/ATCC) was 1.97 µM. For the same compound, the activity at 10 µM (MDA-MB-231/ATCC; [2]) was -28.4%, the GI50 (SN12C; Homo sapiens, 48 h) was 3 µM and the “Percentage Cell Growth” value (SN12C; single dose 10 µM) was −45.76%. For the same compound, the “Percentage Cell Growth” value (DU-145; DU-145, single dose 10 µM) was −32.96%, the GI50 (DU-145; Homo sapiens, DU-145, 48 h) was 3.21 µM and the GI50 (MDA-MB-435; Homo sapiens, MDA-MB-435, 48 h) was 8.65 µM. For the same compound, the “Percentage Cell Growth” value (MDA-MB-435; MDA-MB-435, single dose 10 µM) was −4.44%, the “MID b, average sensitivity” value (Prostate cancer subpanel) was 3.02 µM and the “Selectivity, ratio MID a: MID b” value (Prostate cancer subpanel) was 1.22. The GI50 (M14; Homo sapiens, M14, 48 h) was 6.05 µM, the “Percentage Cell Growth” value (M14; M14, single dose 10 µM) was 8.80% and the GI50 (RPMI-8226) was 3.53 µM. For the same compound, the activity at 10 µM (RPMI-8226; [2]) was -19.8%, the GI50 (LOX IMVI; Homo sapiens, 48 h) was 1.77 µM and the “Percentage Cell Growth” value (LOX IMVI; single dose 10 µM) was −72.80%. The GI50 (SF-295; Homo sapiens, SF-295, 48 h) was 3.39 µM, the “Percentage Cell Growth” value (SF-295; SF-295, single dose 10 µM) was −57.70% and the GI50 (OVCAR-5; Homo sapiens, OVCAR-5, 48 h) was 3.78 µM. The “Percentage Cell Growth” value (OVCAR-5; OVCAR-5, single dose 10 µM) was −21.57%, the GI50 (NCI/ADR-RES; Homo sapiens, 48 h) was 3.17 µM and the “Percentage Cell Growth” value (NCI/ADR-RES; single dose 10 µM) was −8.91%. For the same compound, the GI50 (UACC-257; Homo sapiens, UACC-257, 48 h) was 13.2 µM, the “Percentage Cell Growth” value (UACC-257; UACC-257, single dose 10 µM) was −6.08% and the GI50 (HL-60(TB)) was 3.59 µM. For the same compound, the activity at 10 µM (HL-60(TB); [2]) was 1.17%, the GI50 (TK-10; Homo sapiens, TK-10, 48 h) was 2.79 µM and the “Percentage Cell Growth” value (TK-10; TK-10, single dose 10 µM) was −69.84%. The GI50 (OVCAR-8; Homo sapiens, OVCAR-8, 48 h) was 3.12 µM, the “Percentage Cell Growth” value (OVCAR-8; OVCAR-8, single dose 10 µM) was −64.82% and the GI50 (U251) was 2.54 µM. For the same compound, the activity at 10 µM (U251; [2]) was -69.3%, the “Percentage Cell Growth” value (COLO 205; COLO 205, single dose 10 µM) was −66.21% and the GI50 (COLO 205; Homo sapiens, COLO 205, 48 h) was 3.63 µM. For the same compound, the “cancer cell lethality, range of percentage growth” value ([1]; cell lines with negative growth) was −1.70% to −100%, the “cases of cancer cell lethality” value ([1]; number of cell lines) was 49 and the “MID b, average sensitivity” value (Colon Cancer subpanel) was 3.21 µM. The “Selectivity, ratio MID a: MID b” value (Colon Cancer subpanel) was 1.14, the GI50 (OVCAR-3; Homo sapiens, OVCAR-3, 48 h) was 2.07 µM and the “Percentage Cell Growth” value (OVCAR-3; OVCAR-3, single dose 10 µM) was −46.59%. The GI50 (MOLT-4) was 3.43 µM, the activity at 10 µM (MOLT-4; [2]) was 1.86% and the “Percentage Cell Growth” value (HS 578T; HS 578T, single dose 10 µM) was −1.70%. The GI50 (HS 578T; Homo sapiens, Hs-578T, 48 h) was 5.74 µM, the “Percentage Cell Growth” value (A498; A498, single dose 10 µM) was −28.33% and the GI50 (A498; Homo sapiens, A498, 48 h) was 12.2 µM. The GI50 (CCRF-CEM) was 4.49 µM, the activity at 10 µM (CCRF-CEM; [2]) was 3.11% and the GI50 (IGROV1; Homo sapiens, IGROV-1, 48 h) was 3.32 µM. For the same compound, the “Percentage Cell Growth” value (IGROV1; IGROV1, single dose 10 µM) was −58.08%, the GI50 (NCI-H460) was 2.12 µM and the activity at 10 µM (NCI-H460; [2]) was -37.5%. For the same compound, the GI50 (RXF 393; Homo sapiens, RXF 393, 48 h) was 2.1 µM, the “Percentage Cell Growth” value (RXF 393; RXF 393, single dose 10 µM) was −49.35% and the “MID b, average sensitivity” value (CNS cancer subpanel) was 3.23 µM. The “Selectivity, ratio MID a: MID b” value (CNS cancer subpanel) was 1.14, the GI50 (SNB-75; Homo sapiens, SNB-75, 48 h) was 2.74 µM and the “Percentage Cell Growth” value (SNB-75; SNB-75, single dose 10 µM) was −39.09%. For the same compound, the “Percentage Cell Growth” value (HOP-92; HOP-92, single dose 10 µM) was −62.83% and the GI50 (HOP-92; Homo sapiens, HOP-92, 48 h) was 2.69 µM.
